Data reported in patent EP0325048A1, “Imidazo- and pyrimido-quinoline, naphthyridine and pyridopyrazine compounds” (SCHERING CORPORATION, priority 1987, dated 1989).
Where two headings read alike, the source gives them in different places.

Tests used:
[1] = test system: reverse passive Arthus reaction in the pleural cavity of rats; assay: reverse passive Arthus reaction in the pleural cavity of rats (pleurisy); assay type: in vivo, Male Lewis rats; details: Rattus norvegicus, po; for inhibition in vivo at 3.125 mg/kg: 3.125 mg/kg p.o. (Table 4); for inhibition in vivo at 6.25 mg/kg: 6.25 mg/kg p.o. (Table 4); for inhibition in vivo at 12.5 mg/kg: 12.5 mg/kg p.o. (Table 4); for inhibition in vivo at 50 mg/kg: 50 mg/kg p.o. (Table 4); for inhibition in vivo at 1 mg/kg: 1 mg/kg p.o.; for inhibition in vivo at 3 mg/kg: 3 mg/kg p.o.; for inhibition in vivo at 9 mg/kg: 9 mg/kg p.o.
Procedure: Another procedure for testing for acute antiinflammatory activity measures the reverse passive Arthus reaction in the pleural cavity of rats.
Male Lewis rats weighing 180-220 grams were obtained from Charles River Breeding Laboratories, Wilmington, MA and permitted food and water ad libitum. Rooms housing the animals were temperature controlled with a 12 hour light and dark cycle.
Groups of five rats were dosed with drug 30 minutes prior to sensitization with BSA (1 mg/0.2 ml saline). Thirty minutes later the animals were challenged with the IgG fraction of a rabbit anti-bovine serum albumi antibodies (0.1 mg antibody protein per 0.2 ml saline Cooper Biomedical, Malvern, PA) in the pleural cavity. Four hours after challenge, the rats were sacrificed and the exudate harvested from the pleural cavity. The volume of the exudate was measured and the total number of cells determined with a Coulter Counter. [formula]
The results measured as percent inhibition of the infiltration of polymorphonuclear leucocytes (PMNs) and of edena are set forth below in Table 3.

[2] = test system: anaphylactic bronchospasm in sensitized guinea pigs; assay: anaphylactic bronchospasm in sensitized guinea pigs (modified Konzett-Rossler), antigen-induced SRS-A mediated bronchoconstriction; assay type: in vivo; details: for % Inhibition of Broncho-constriction: 2 hours before antigen challenge, inhibition of increase in intratracheal pressure; for % Inhibition of Bronchoconstriction: comparison compound (Table 2)
Procedure: The anti-allergy method of this invention is identified by tests which measure a compound's inhibition of anaphylactic bronchospasm in sensitized guinea pigs having antigen-induced SRS-A mediated bronchoconstriction. Allergic bronchospasm was measured in actively sensitized guinea pigs by a modification of the procedure of Konzett and Rossler, Arch. Exptl. Pathol. […] Male Hartley guinea pigs were sensitized with 5 mg ovalbumin injected ip and 5 mg injected sc in 1 ml saline on day 1 and 5mg ovalbumin injected ip on day 4. The sensitized animals were used 3-4 weeks later. To measure anaphylactic bronchospasm, sensitized guinea pigs were fasted overnight and the following morning were anesthetized with 0.9 ml/kg ip of dialurethane. The trachea and jugular vein were cannulated and the animals were ventilated by a Harvard rodent respirator. A side arm to the tracheal cannula was connected to a Harvard pressure transducer to obtain a continuous measure of intratracheal pressure. An increase in intratracheal pressure was taken as a measure of bronchoconstriction. Each guinea pig was injected iv with 1mg/kg propranolol, 5 mg/kg indomethacin and 2 mg/kg mepyramine given together in a volume of 1 ml/kg. Fifteen minutes later, the animals were challenged with antigen (0.5 per cent ovalbumin) delivered as an aerosol generated from a DeVilbiss Model 65 ultrasonic nebulizer and delivered through the tracheal cannula for 30 seconds. Bronchoconstriction was measured as the peak increase in intratracheal pressure occurring within 15 minutes after antigen challenge.

[3] = test system: Reversed Passive Arthus Reaction (RPAR)-PAW; assay: Reversed Passive Arthus Reaction (RPAR)-PAW technique; assay type: in vivo, male Lewis rats; details: 25 mg/kg (p.o.); paw volume at 2 hours post-challenge
Procedure: The compounds of this invention are also useful for the treatment of inflammation; thus, they are useful for the treatment of: arthritis, bursitis, tendonitis, gout and other inflammatory conditions. […] The potency of the compounds is determined using indomethacin as the standard. On the basis of the test results, an oral dosage range of about 5 milligrams per kilogram of body weight per day to about 50 milligrams per kilogram of body weight per day in divided doses taken at about 4 hour intervals is recommended, again with any of the conventional modes of administration for treatment of inflammation being suitable.
Male Lewis inbred albino rats weighing 180-220 grams obtained from Charles River Breeding Laboratories are used in these experiments. The rats are housed 3 animals/cage and food and water are allowed ad libitum. The animals are numbered 1-3 in each cage and color marked for identification purposes.
All reagents and drugs are prepared just prior to the study. […]
Groups of animals (6/group) are dosed with drug in MC by gavage one hour prior to sensitization with BSA. […] The volume of mercury displaced is converted to weight and recorded. […] Paw volumes are also recorded with a plethysmograph during the development of the inflammation at 2 hours post-challenge.

[4] = 4 h, read-out: Pleurisy (% Inhibition) Edema
[5] = 4 h, read-out: Pleurisy (% Inhibition) PMNs
[6] = 25 mg/kg p.o., exudate 4 hours after challenge, read-out: Pleurisy (% Inhibition) Edema
[7] = 25 mg/kg p.o., exudate 4 hours after challenge, read-out: Pleurisy (% Inhibition) PMNs

In the case of `C[C@]12C=CC(=O)C=C1CC[C@@H]1[C@@H]2C(=O)C[C@@]2(C)[C@H]1CC[C@]2(O)C(=O)CO` [Prednisone, prednisone, reference compound], the inhibition in vivo at 3.125 mg/kg [1, 4] is reported as 2%, the inhibition in vivo at 3.125 mg/kg [1, 5] is reported as 7% and the inhibition in vivo at 6.25 mg/kg [1, 4] is reported as 17%. The inhibition in vivo at 6.25 mg/kg [1, 5] was 16%, the inhibition in vivo at 12.5 mg/kg [1, 4] was 27% and the inhibition in vivo at 12.5 mg/kg [1, 5] was 20%. For the same compound, the inhibition in vivo at 25 mg/kg ([1]; 4 h, 25 mg/kg p.o. (Table 4), read-out: Pleurisy (% Inhibition) Edema) was 44%, the inhibition in vivo at 25 mg/kg ([1]; 4 h, 25 mg/kg p.o. (Table 4), read-out: Pleurisy (% Inhibition) PMNs) was 25% and the inhibition in vivo at 50 mg/kg [1, 4] was 58%. The inhibition in vivo at 50 mg/kg [1, 5] was 42%.

With `O=c1c2cccnc2c(-c2cccc(Cl)c2)c2n1CCN2` [R^3=H, R^4=3-chloro-phenyl, n=2, 10-(3-chlorophenyl)-2,3-dihydroimidazo[1,2-g][1,6]naphthyridin-5(1H)-one] the “% Inhibition of Broncho-constriction” value ([2]; 5 mg/kg p.o.) was 43%.

`O=c1c2cccnc2c(-c2cccc3ccccc23)c2n1CCN2` [R^3=H, R^4=naphthyl, n=2, 2,3-dihydro-10-(1-naphthalenyl)imidazo-[1,2-g][1,6]naphthyridin-5(1H)-one] gave an inhibition in vivo at 25 mg/kg [1, 6] of 28% and an inhibition in vivo at 25 mg/kg [1, 7] of 50%.

In the case of `Cn1c(=O)c2[nH]cnc2n(C)c1=O` [aminophylline, reference compound], the “% Inhibition of Bronchoconstriction” value ([2]; 18 mg/kg p.o.) is reported as 21% and the “% Inhibition of Bronchoconstriction” value ([2]; 53 mg/kg p.o.) is reported as 58%.

`O=c1c2cccnc2c(-c2cccc(Cl)c2)c2n1CCCN2` [R^3=H, R^4=3-chloro phenyl, n=3, 11-(3-chlorophenyl)-1,2,3,4-tetrahydro-6H-pyrimido[1,2-g][1,6]naphthyridin-6-one] was tested, and the “% Inhibition of Broncho-constriction” value ([2]; 5 mg/kg p.o.) was 54%, the inhibition in vivo at 25 mg/kg [1, 6] was 76% and the inhibition in vivo at 25 mg/kg [1, 7] was 82%.

For `CC(C)(C)c1ccc(C(O)CCCN2CCC(C(O)(c3ccccc3)c3ccccc3)CC2)cc1` (stereo not shown) [terfenadine, reference compound], the “% Inhibition of Bronchoconstriction” value ([2]; 30 mg/kg p.o.) was 5%.

With `CN1CCn2c1c(-c1ccccc1)c1ncccc1c2=O` [R^3=CH3, R^4=phenyl, n=2, 2,3-dihydro-1-methyl-10-phenylimidazo[1,2-g][1,6]naphthyridin-5(1H)-one] the inhibition in vivo at 25 mg/kg [1, 6] was 56% and the inhibition in vivo at 25 mg/kg [1, 7] was 69%.

In the case of `Cc1ccc(-c2c3n(c(=O)c4cccnc24)CCN3)cc1` [R^3=H, R^4=4-methyl phenyl, n=2, 2,3-dihydro-10(4-methylphenyl)imidazo-[1,2-g][1,6]naphthyridin-5(1H)-one], the “% Inhibition of Broncho-constriction” value ([2]; 5 mg/kg p.o.) is reported as 1%, the inhibition [3] is reported as 42% and the inhibition in vivo at 25 mg/kg [1, 6] is reported as 42%. For the same compound, the inhibition in vivo at 25 mg/kg [1, 7] was 53%.

In the case of `O=c1c2cccnc2c(-c2ccc(Cl)cc2)c2n1CCN2` [R^3=H, R^4=4-chloro-phenyl, n=2, 10-(4-chlorophenyl)-2,3-dihydro-imidazo[1,2-g][1,6]naphthyridin-5(1H)-one], the “% Inhibition of Broncho-constriction” value ([2]; 5 mg/kg p.o.) is reported as 11%, the inhibition in vivo at 25 mg/kg [1, 6] is reported as 92% and the inhibition in vivo at 25 mg/kg [1, 7] is reported as 95%.

For `C[C@@H]1C[C@H]2[C@@H]3CCC4=CC(=O)C=C[C@]4(C)[C@@]3(F)[C@@H](O)C[C@]2(C)[C@@]1(O)C(=O)CO` [dexamethasone, reference compound], the “% Inhibition of Bronchoconstriction” value ([2]; 3 mg/kg p.o.) was 38% and the “% Inhibition of Bronchoconstriction” value ([2]; 10 mg/kg p.o.) was 46%.

With `O=c1c2cccnc2c(-c2ccccc2)c2n1CCN2` [R^3=H, R^4=phenyl, n=2, 2,3-dihydro-10-phenylimidazo[1,2-g][1,6]-naphthyridin-5(1H)-one] the “% Inhibition of Broncho-constriction” value ([2]; 10 mg/kg p.o.) was 16%, the inhibition [3] was 92% and the inhibition in vivo at 1 mg/kg [1, 4] was 9%. It also gave an inhibition in vivo at 1 mg/kg [1, 5] of 3%, an inhibition in vivo at 3 mg/kg [1, 4] of 25% and an inhibition in vivo at 3 mg/kg [1, 5] of 28%. For the same compound, the inhibition in vivo at 9 mg/kg [1, 4] was 34%, the inhibition in vivo at 9 mg/kg [1, 5] was 54% and the inhibition in vivo at 25 mg/kg [1, 6] was 55%. The inhibition in vivo at 25 mg/kg [1, 7] was 90%.

`COc1cccc(-c2c3n(c(=O)c4cccnc24)CCN3)c1` [R^3=H, R^4=3-methoxy-phenyl, n=2, 2,3-dihydro-10-(3-methoxyphenyl)imidazo-[1,2-g][1,6]naphthyridin-5(1H)-one] was tested, and the “% Inhibition of Broncho-constriction” value ([2]; 5 mg/kg p.o.) was 61%, the inhibition in vivo at 25 mg/kg [1, 6] was 69% and the inhibition in vivo at 25 mg/kg [1, 7] was 79%.

In the case of `COc1ccc(-c2c3n(c(=O)c4cccnc24)CCN3)cc1` [R^3=H, R^4=4-methoxy-phenyl, n=2, 2,3-dihydro-10-(4-methoxyphenyl)imidazo-[1,2-g][1,6]naphthyridin-5(1H)-one], the “% Inhibition of Broncho-constriction” value ([2]; 10 mg/kg p.o.) is reported as 8%, the inhibition in vivo at 25 mg/kg [1, 6] is reported as 42% and the inhibition in vivo at 25 mg/kg [1, 7] is reported as 49%.
